In US11530244B2, “Cyclic polypeptides for PCSK9 inhibition” (priority 2018, dated 2022):
Read-outs that look alike come from different tables or passages of the source. Starred links: 1 amine or outer side, 2 acyl side, 3 side chain; linkers in the order of their positions; H or OH if unused. Positions of bridges follow the written chain, without caps; N, C: chain ends. Non-standard residues stand in square brackets, D forms with d. Residues, ends and D or L forms follow the SMILES beside them. X38 = NC(=O)[C@H](CSCc1cccc(C[*:1])c1)NC(=O)[C@@H]1CCCC1C(=O)[C@H](Cc1ccc(OCC2CCCCC2)cc1)N[*:2]; X14 = CCOP(=O)(OCC)C(F)(F)c1ccc(C[C@H](N[*:1])C(=O)[*:2])cc1; Trp(5-F) = N[C@@H](Cc1c[nH]c2ccc(F)cc12)C(=O)O; X16 = O=C([C@H](CCCCCC=[*:3])N[*:1])[*:2]; X17 = O=C(CCSCc1ccc(CSCCN[*:1])cc1)[*:2]; Pro(4S-NH2) = N[C@@H]1CN[C@H](C(=O)O)C1; X4 = O=C(CCSCc1cccc(CSCCN[*:1])c1)[*:2]; Hag = O=C([C@H](CCC=[*:3])N[*:1])[*:2]; X27 = O=C([C@@H](N[*:1])C1(O)CC1)[*:2]; mXylylene = c1cc(C[*:1])cc(C[*:2])c1; NMeY = CN[C@@H](Cc1ccc(O)cc1)C(=O)O; X6 = O=C(Cc1ccc(CN[*:2])cc1)[*:1]; Aad = N[C@@H](CCCC(=O)O)C(=O)O; NMeL = CN[C@@H](CC(C)C)C(=O)O; αMeP = C[C@@]1(C(=O)O)CCCN1; Orn = NCCC[C@H](N)C(=O)O; Mpa = O=C(O)CCS

Assays:
[1] = biological target: human PCSK9 / human LDLR EGFa domain interaction (Homo sapiens (Human), UniProt Q8NBP7); assay: TR-FRET assay of inhibition of the PCSK9-LDLR protein-protein interaction; type: binding
Chain of human PCSK9 / human LDLR EGFa domain interaction (Q8NBP7 153-692): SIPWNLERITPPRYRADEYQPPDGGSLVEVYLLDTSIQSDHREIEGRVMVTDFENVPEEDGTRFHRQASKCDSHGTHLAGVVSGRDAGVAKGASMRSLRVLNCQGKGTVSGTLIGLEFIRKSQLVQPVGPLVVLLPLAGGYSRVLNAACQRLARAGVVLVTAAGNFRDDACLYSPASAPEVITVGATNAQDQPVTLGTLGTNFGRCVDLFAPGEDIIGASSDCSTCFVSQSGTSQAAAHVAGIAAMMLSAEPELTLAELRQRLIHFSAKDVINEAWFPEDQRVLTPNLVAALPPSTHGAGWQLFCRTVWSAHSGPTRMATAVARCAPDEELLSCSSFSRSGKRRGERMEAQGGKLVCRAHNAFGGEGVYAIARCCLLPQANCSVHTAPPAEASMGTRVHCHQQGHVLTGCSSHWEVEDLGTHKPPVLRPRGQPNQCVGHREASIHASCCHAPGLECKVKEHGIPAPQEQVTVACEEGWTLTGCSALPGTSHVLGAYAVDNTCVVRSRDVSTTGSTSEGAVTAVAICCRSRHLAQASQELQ
Chain of human PCSK9 / human LDLR EGFa domain interaction (Q8NBP7 31-152 partner): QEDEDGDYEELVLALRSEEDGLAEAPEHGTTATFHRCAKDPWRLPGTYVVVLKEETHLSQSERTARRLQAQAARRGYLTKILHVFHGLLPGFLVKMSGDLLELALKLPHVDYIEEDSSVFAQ
Procedure, shortened: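 20 nM biotin-avitag PCSK9 + 20 nM His-LDLR EGFa; 5 nM Ulight-SA / 5 nM Eu-anti-His; 2 h RT; HEPES 50 mM, NaCl 150 mM, CaCl2 5 mM, 0.01% BSA, 0.01% P20. Half-maximal inhibition, 4-parameter fit.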

PCSK9 = PCSK9 (Homo sapiens (Human), UniProt Q8NBP7); assay: PCSK9 Alexa FRET Standard assay (displacement of AlexaFluor647 tagged cyclic peptide Reagent A); type: binding; conditions: 0.5 nM PCSK9, 20 nM AF cyclic peptide Reagent A
Chain of PCSK9 (Q8NBP7 153-692): as the sequence (Q8NBP7 153-692) above
Procedure, shortened: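 TR-FRET displacement: 0.5 nM biotinylated PCSK9 with 1.25 nM Strep-Eu and 20 nM AlexaFluor-tagged cyclic peptide (final) in 50 mM HEPES pH 7.4, 0.15 M NaCl, 5 mM CaCl2, 0.01% BSA, 0.01% P20, ≥2 h at room temperature. IC50 from sigmoidal fit, converted to Ki via peptide KD; falling Eu counts flagged false positives.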

[2] = TR-FRET, 20 nM human PCSK9, 20 nM human LDLR EGFa domain, 2 hours room temperature, read-out: IC50
[3] = PCSK9 Alexa FRET Standard assay, read-out: IC50

Structure (SMILES) | IC50 [1, 2] | IC50 (PCSK9; [3]) | IC50 [1] | IC50 (PCSK9; IC50, PCSK9 Alexa FRET Standard assay)
COc1ccc(C[C@@H]2NC(=O)[C@H](CCC(=O)O)NC(=O)[C@@H]3C[C@H](N)CN3C(=O)[C@H](Cc3c[nH]c4ccc(F)cc34)NC(=O)[C@H](Cc3c[nH]c4ccc(F)cc34)NC(=O)[C@@H](C)NC(=O)[C@H](C)NC(=O)CCSCc3ccc(cc3)CSCCNC(=O)[C@]3(C)CCCN3C2=O)cc1 [Compound 382] (cyclo(A[dA][Trp(5-F)][Trp(5-F)][Pro(4S-NH2)]EY(Me)[αMeP][X17])) | 0.0001 to 0.1 µM | 0.00011 to 0.1 µM | – | –
C[C@@]12CCCN1C(=O)[C@H](Cc1ccc(O)cc1)NC(=O)[C@H](Cc1cnc[nH]1)NC(=O)[C@H](CC(=O)O)NC(=O)[C@H](Cc1c[nH]c3ccc(F)cc13)NC(=O)[C@H](Cc1c[nH]c3ccc(F)cc13)NC(=O)CNC(=O)[C@H](C1(O)CC1)NC(=O)CCSCc1cccc(c1)CSC[C@@H](C(N)=O)NC2=O [Compound 372] ([Mpa][X27]G[Trp(5-F)][Trp(5-F)]DHY[αMeP]C-NH2; linker 1-10 via mXylylene) | 0.1 to 1 µM | 0.1 to 1 µM | – | –
CCOP(=O)(OCC)C(F)(F)c1ccc(C[C@@H]2NC(=O)[C@H]([C@@H](C)O)NC(=O)[C@@H]3CCCN3C(=O)[C@H](Cc3c[nH]c4ccc(F)cc34)NC(=O)[C@H](Cc3c[nH]c4ccc(F)cc34)NC(=O)[C@@H](C)NC(=O)[C@H](CCCCN)NC(=O)CCSCc3cccc(c3)CSCCNC(=O)[C@]3(C)CCCN3C2=O)cc1 [Compound 131] (cyclo(K[dA][Trp(5-F)][Trp(5-F)]PT[X14][αMeP][X4])) | – | – | 0.1 to 1 µM | 1 to 12.1 µM
NCCC[C@@H]1NC(=O)CCSCc2cccc(c2)CSC[C@@H](C(N)=O)NC(=O)[C@@H]2CCCC2C(=O)[C@H](Cc2ccc(OCC3CCCCC3)cc2)NC(=O)[C@H](Cc2cnc[nH]2)NC(=O)[C@H](CC(=O)O)NC(=O)[C@H](Cc2c[nH]c3ccc(F)cc23)NC(=O)[C@H](Cc2c[nH]c3ccc(F)cc23)NC(=O)CNC1=O (some centres unmarked) [Compound 340] ([Mpa][Orn]G[Trp(5-F)][Trp(5-F)]DH; linker 1-C via X38) | 0.0001 to 0.1 µM | 0.1 to 1 µM | – | –
COc1ccc(C[C@@H]2NC(=O)[C@H]([C@@H](C)O)NC(=O)[C@]3(C)CCCN3C(=O)[C@H](Cc3c[nH]c4ccc(F)cc34)NC(=O)[C@H](Cc3c[nH]c4ccc(F)cc34)NC(=O)[C@@H](C)NC(=O)[C@H](CCCCN)NC(=O)CCSCc3cccc(c3)CSCCNC(=O)[C@]3(C)CCCN3C2=O)cc1 [Compound 025] (cyclo(K[dA][Trp(5-F)][Trp(5-F)][αMeP]TY(Me)[αMeP][X4])) | 0.1 to 1 µM | 0.1 to 1 µM | – | –
COc1ccc(C[C@@H]2NC(=O)CCSCc3cccc(c3)CSC[C@@H](C(N)=O)NC(=O)[C@]3(C)CCCN3C(=O)[C@H](Cc3ccc(OC)cc3)NC(=O)[C@H]([C@@H](C)OC)NC(=O)[C@H](CC(C)C)N(C)C(=O)[C@H](Cc3ccc(OC)cc3)NC(=O)[C@H](Cc3ccc(OC)cc3)N(C)C(=O)[C@@H](CC(C)C)NC2=O)cc1 [Compound 036] ([Mpa]Y(Me)[dL][NMeY](Me)Y(Me)[NMeL]T(Me)Y(Me)[αMeP]C-NH2; linker 1-10 via mXylylene) | 0.0001 to 0.1 µM | 0.00011 to 0.1 µM | – | –
COc1ccc(C[C@@H]2NC(=O)[C@H]([C@@H](C)O)NC(=O)[C@@H]3CCCCC/C=C/CC[C@H](NC(=O)[C@@H](C)NC(=O)[C@H](C)NC(=O)CCSCc4cccc(c4)CSCCNC(=O)[C@]4(C)CCCN4C2=O)C(=O)N[C@@H](Cc2c[nH]c4ccc(F)cc24)C(=O)N3)cc1 [Compound 496] (cyclo(A[dA][Hag][Trp(5-F)][X16]TY(Me)[αMeP][X4]); staple (E) 3-5) | 0.1 to 1 µM | 0.1 to 1 µM | – | –
C[C@@]12CCCN1C(=O)[C@H](Cc1ccc(O)cc1)NC(=O)[C@H](Cc1cnc[nH]1)NC(=O)[C@H](CC(=O)O)NC(=O)[C@H](Cc1c[nH]c3ccc(F)cc13)NC(=O)[C@H](Cc1c[nH]c3ccc(F)cc13)NC(=O)CNC(=O)[C@H](CCCN)NC(=O)CCSCc1cccc(c1)CSC[C@@H](C(N)=O)NC2=O [Compound 248] ([Mpa][Orn]G[Trp(5-F)][Trp(5-F)]DHY[αMeP]C-NH2; linker 1-10 via mXylylene) | 0.0001 to 0.1 µM | 0.1 to 1 µM | – | –
COc1ccc(C[C@@H]2NC(=O)[C@H](Cc3cnc[nH]3)NC(=O)[C@H](CC(=O)O)NC(=O)[C@H](Cc3c[nH]c4ccc(F)cc34)NC(=O)[C@H](Cc3c[nH]c4ccc(F)cc34)NC(=O)[C@@H](C)NC(=O)[C@H](NC(C)=O)CCCCNC(=O)Cc3ccc(cc3)CNC(=O)CCC[C@@H](C(N)=O)NC(=O)[C@]3(C)CCCN3C2=O)cc1 [Compound 523] (Ac-[dK][dA][Trp(5-F)][Trp(5-F)]DHY(Me)[αMeP][Aad]-NH2; linker 1-9 via X6) | 0.0001 to 0.1 µM | 0.1 to 1 µM | – | –
CC(=O)N[C@H]1CCCn2cc(nn2)CCC[C@@H](C(N)=O)NC(=O)[C@]2(C)CCCN2C(=O)[C@H](Cc2ccc(O)cc2)NC(=O)[C@H](Cc2cnc[nH]2)NC(=O)[C@H](CC(=O)O)NC(=O)[C@H](Cc2c[nH]c3ccc(F)cc23)NC(=O)[C@H](Cc2c[nH]c3ccc(F)cc23)NC(=O)CNC(=O)[C@H](C)NC1=O [Compound 333] | 1 to 12.1 µM | 1 to 12.1 µM | – | –
